“And” between values parts separate entries of the source, which are not always exact repeats. Equal values may be shown once. Toxic doses and inconclusive results are not listed.
System: BDF1 mice, L1210 leukemia sc, survival T/C
Assay: NCI In Vivo Anticancer Drug Screen. Data for tumor model L1210 Leukemia (subcutaneous) in B6D2F1 (BDF1) mice
Settings: endpoint: median survival time, higher = longer survival
In short: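 Read-out: T/C ratio, i.e. survival or tumor size in treated mice over that in vehicle-treated controls, from mice bearing transplantable tumors.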

With `N=c1ccn2c(n1)OC1C(O)C(CO)OC12` (stereo not given) the T/C (dose: 9.38 mg/kg/injection, schedule: Q03HX024 (sc), vehicle: water) was 190 % of control, the T/C (dose: 18.75 mg/kg/injection, schedule: Q03HX024 (sc), vehicle: water) was 200 % of control and the T/C (dose: 25.0 mg/kg/injection, schedule: Q01DX009 (sc), vehicle: water) was 203 % of control and 170 % of control. For the same compound, the T/C (dose: 25.0 mg/kg/injection, schedule: Q## X009 (sc), vehicle: water) was 203 % of control and 172 % of control, the T/C (dose: 37.5 mg/kg/injection, schedule: Q01DX008 (sc), vehicle: water) was 227 % of control and 228 % of control and the T/C (dose: 37.5 mg/kg/injection, schedule: Q01DX009 (sc), vehicle: water) was 180 % of control. The T/C (dose: 37.5 mg/kg/injection, schedule: Q03HX024 (sc), vehicle: water) was 205 % of control, the T/C (dose: 50.0 mg/kg/injection, schedule: Q01DX009 (sc), vehicle: water) was 184 % of control [middle of 4 runs] and the T/C (dose: 50.0 mg/kg/injection, schedule: Q## X009 (sc), vehicle: water) was 214 % of control and 188 % of control. The T/C (dose: 65.0 mg/kg/injection, schedule: Q01DX009 (sc), vehicle: water) was 191 % of control, the T/C (dose: 75.0 mg/kg/injection, schedule: Q01DX008 (sc), vehicle: water) was 228 % of control and 233 % of control and the T/C (dose: 75.0 mg/kg/injection, schedule: Q01DX009 (oral), vehicle: water) was 180 % of control. For the same compound, the T/C (dose: 75.0 mg/kg/injection, schedule: Q01DX009 (sc), vehicle: water) was 203 % of control and 190 % of control, the T/C (dose: 75.0 mg/kg/injection, schedule: Q03HX024 (sc), vehicle: water) was 220 % of control and the T/C (dose: 75.0 mg/kg/injection, schedule: Q## X009 (sc), vehicle: water) was 203 % of control. The T/C (dose: 100.0 mg/kg/injection, schedule: Q01DX009 (ip), vehicle: saline) was 168 % of control and 172 % of control, the T/C (dose: 100.0 mg/kg/injection, schedule: Q01DX009 (ip), vehicle: water) was 205 % of control and the T/C (dose: 100.0 mg/kg/injection, schedule: Q01DX009 (sc), vehicle: water) was 206 % of control [middle of 4 runs]. For the same compound, the T/C (dose: 100.0 mg/kg/injection, schedule: Q## X009 (sc), vehicle: water) was 222 % of control and 211 % of control, the T/C (dose: 108.0 mg/kg/injection, schedule: Q01DX009 (sc), vehicle: water) was 183 % of control and the T/C (dose: 108.0 mg/kg/injection, schedule: Q01DX014 (sc), vehicle: water) was 210 % of control. For the same compound, the T/C (dose: 108.0 mg/kg/injection, schedule: Q01DX015 (sc), vehicle: water) was 194 % of control and 200 % of control, the T/C (dose: 150.0 mg/kg/injection, schedule: Q01DX008 (sc), vehicle: water) was 247 % of control and 250 % of control and the T/C (dose: 150.0 mg/kg/injection, schedule: Q01DX009 (oral), vehicle: water) was 175 % of control. For the same compound, the T/C (dose: 150.0 mg/kg/injection, schedule: Q01DX009 (sc), vehicle: water) was 233 % of control and 200 % of control, the T/C (dose: 150.0 mg/kg/injection, schedule: Q03HX008 (sc), vehicle: water) was 150 % of control and the T/C (dose: 150.0 mg/kg/injection, schedule: Q03HX024 (sc), vehicle: water) was 210 % of control. For the same compound, the T/C (dose: 150.0 mg/kg/injection, schedule: Q## X009 (sc), vehicle: water) was 233 % of control, the T/C (dose: 180.0 mg/kg/injection, schedule: Q01DX009 (sc), vehicle: water) was 207 % of control and the T/C (dose: 180.0 mg/kg/injection, schedule: Q01DX014 (sc), vehicle: water) was 253 % of control. For the same compound, the T/C (dose: 180.0 mg/kg/injection, schedule: Q01DX015 (sc), vehicle: water) was 222 % of control and 223 % of control, the T/C (dose: 200.0 mg/kg/injection, schedule: Q01DX009 (ip), vehicle: saline) was 180 % of control and 190 % of control and the T/C (dose: 200.0 mg/kg/injection, schedule: Q01DX009 (ip), vehicle: water) was 227 % of control. The T/C (dose: 200.0 mg/kg/injection, schedule: Q01DX009 (sc), vehicle: water) was 236 % of control [middle of 4 runs], the T/C (dose: 200.0 mg/kg/injection, schedule: Q## X009 (sc), vehicle: water) was 247 % of control and 238 % of control and the T/C (dose: 300.0 mg/kg/injection, schedule: Q01DX001 (sc), vehicle: water) was 120 % of control. For the same compound, the T/C (dose: 300.0 mg/kg/injection, schedule: Q01DX008 (sc), vehicle: water) was 235 % of control and 238 % of control, the T/C (dose: 300.0 mg/kg/injection, schedule: Q01DX009 (ip), vehicle: saline) was 202 % of control and 209 % of control and the T/C (dose: 300.0 mg/kg/injection, schedule: Q01DX009 (oral), vehicle: water) was 195 % of control. The T/C (dose: 300.0 mg/kg/injection, schedule: Q01DX009 (sc), vehicle: water) was 180 % of control and 183 % of control (2×), the T/C (dose: 300.0 mg/kg/injection, schedule: Q01DX014 (sc), vehicle: water) was 239 % of control and the T/C (dose: 300.0 mg/kg/injection, schedule: Q01DX015 (sc), vehicle: water) was 227 % of control and 231 % of control. The T/C (dose: 300.0 mg/kg/injection, schedule: Q03HX008 (sc), vehicle: water) was 155 % of control, the T/C (dose: 300.0 mg/kg/injection, schedule: Q04DX003 (sc), vehicle: water) was 150 % of control and the T/C (dose: 300.0 mg/kg/injection, schedule: Q## X009 (sc), vehicle: water) was 218 % of control. For the same compound, the T/C (dose: 400.0 mg/kg/injection, schedule: Q01DX009 (ip), vehicle: water) was 177 % of control, the T/C (dose: 400.0 mg/kg/injection, schedule: Q01DX009 (sc), vehicle: water) was 200 % of control and 209 % of control and 304 % of control and the T/C (dose: 500.0 mg/kg/injection, schedule: Q01DX014 (sc), vehicle: water) was 163 % of control. For the same compound, the T/C (dose: 500.0 mg/kg/injection, schedule: Q01DX015 (sc), vehicle: water) was 211 % of control and 233 % of control, the T/C (dose: 600.0 mg/kg/injection, schedule: Q01DX008 (sc), vehicle: water) was 172 % of control and 180 % of control and the T/C (dose: 600.0 mg/kg/injection, schedule: Q01DX009 (oral), vehicle: water) was 155 % of control. The T/C (dose: 600.0 mg/kg/injection, schedule: Q04DX003 (sc), vehicle: water) was 170 % of control, the T/C (dose: 800.0 mg/kg/injection, schedule: Q01DX009 (ip), vehicle: water) was 122 % of control and the T/C (dose: 800.0 mg/kg/injection, schedule: Q01DX009 (sc), vehicle: water) was 88 % of control. The T/C (dose: 800.0 mg/kg/injection, schedule: Q## X009 (sc), vehicle: water) was 88 % of control, the T/C (dose: 1200.0 mg/kg/injection, schedule: Q01DX009 (oral), vehicle: water) was 100 % of control and the T/C (dose: 1200.0 mg/kg/injection, schedule: Q04DX003 (sc), vehicle: water) was 195 % of control. The T/C (dose: 1600.0 mg/kg/injection, schedule: Q01DX001 (sc), vehicle: water) was 150 % of control and 157 % of control, the T/C (dose: 2400.0 mg/kg/injection, schedule: Q01DX001 (sc), vehicle: water) was 150 % of control and the T/C (dose: 2400.0 mg/kg/injection, schedule: Q03HX008 (sc), vehicle: water) was 90 % of control.

Reference: PubChem BioAssay AID250 (DTP/NCI, 2004)
